The subject of one data set is male Sprague-Dawley rats. The data set can be described thus: efficacy study: saliva production after topical instillation into the oral cavity of anaesthetised rats. It is filed as in vivo, rat. The note with it: saturated solution. Here is the method: In the experiments outlined below, bethanechol chloride for buccal administration was prepared as a saturated solution in a solvent mixture comprising PEG 400, glycerol, ethanol and sodium phosphate buffer. Specific solvent amounts were 30% PEG 400, 30% glycerol, 20% ethanol with 20% phosphate buffer (formed by mixing 50 ml of 0.1M sodium phosphate monobasic (monohydrate) with sufficient 0.1M sodium phosphate dibasic (heptahydrate) until a pH of 5.5 was achieved). Bethanechol chloride was present at up to 33%.
In order to prepare a saturated solution of bethanechol chloride the following method was used. A magnetic flea was placed into a 20 ml scintillation vial and the weight of both was recorded. Exactly 0.8 g of the pH 5.5 buffer solution was placed into the container. […] Once the saturated solution (containing un-dissolved bethanechol) had been achieved, the vial was placed onto a balance and the total weight recorded. […] The amounts of ethanol, glycerol and PEG 400 were calculated to make a solution containing 30% PEG 400, 30% glycerol, 20% ethanol and 20% buffer and bethanechol. […]
Saliva production data were analysed by repeated measures two-way ANOVA followed by Bonferronis post tests (GraphPad Prism version 5.0, GraphPad Software, San Diego, Calif., USA). […]

Data set [1] relates to rats. The data set can be described thus: cardiovascular and respiratory parameters after application to the buccal cavity of anaesthetised rats. It is filed as in vivo, rat. From the text: (§1) In separate experiments, the effects of bethanechol (saturated solution, see above) were compared with those of physostigmine (1% solution in saline) on cardiovascular and respiratory parameters when applied to the buccal cavity of rats. Anaesthesia was induced in animals with urethane (1.75 g/kg given i.p.). Each animal was artificially ventilated via a tracheal cannula that was connected to a Fleisch (size 00) pneumotachograph and a pressure transducer (pressure range ±2 cm H2O). […] The left carotid artery was cannulated for recording blood pressure and heart rate, and the left jugular vein cannulated for drug administration. For topical administration, after 15-30 minutes a Parafilm ball was inserted into the back of the oral cavity to prevent the loss of solution into the oesophagus and airways. At T−10 minutes a cotton wool ball was inserted into the oral cavity and 10 minutes later it was removed and excess saliva wiped away. At T=O minutes physostigmine (1%, 10 microliters each on left and right sides) or bethanechol (10 microliters each on left and right sides) were instilled using a pipette. At T=10 minutes, another cotton wool ball was inserted into the oral cavity, 10 min later, it was removed and the excess saliva wiped away. The effects on baseline cardiovascular and respiratory parameters were recorded over 90 minutes. Physostigmine produced changes in all measured parameters, the mean maximum effects seen during the observation period were for pulmonary inflation pressure 44% increase, mean arterial pressure 17% decrease and heart rate 9.3% decrease (all n=2). In contrast, bethanechol produced minimal (and not significant) effects on any of these parameters, the mean maximum changes being 0% change, 3% decrease and 1% decrease for pulmonary inflation pressure, mean arterial pressure and heart rate respectively (n=3).

Data set [2] has as its system rats. The data set can be described thus: cardiovascular and respiratory effects after intravenous administration in rats. It is filed as in vivo, rat. The note with it: n=3.
Description: as §1
For an additional comparison, the effects of bethanechol (prepared in saline, dosing volume 0.1 ml) over a dose range of 0.3 micrograms/kg to 300 micrograms/kg administered intravenously were studied in rats. Doses were administered in ascending order to each animal (n=3) and cardiovascular and respiratory effects monitored over 5 minutes or until the recorded parameter had returned to baseline (whichever was the later). […] The effects observed with bethanechol at 300 micrograms/kg were mean arterial pressure 72% decrease, heart rate 69% decrease and pulmonary inflation pressure 30% increase.

A further data set has as its system patients with xerostomia. The data set can be described thus: clinical study in patients with xerostomia, buccal solution versus placebo. It is filed as in vivo, human. As to conditions: approximately 0.5 ml solution retained against the buccal mucosa for 1 to 2 minutes and then swallowed, crossover versus placebo. The procedure:
A cohort of approximately 20 patients with xerostomia is randomised to receive either placebo or bethanechol formulation or vice versa with at least 3 days washout between the treatment segments. Each treatment is given as a small volume (approximately 0.5 ml) solution to be retained against the buccal mucosa for 1 to 2 minutes and then swallowed. Clinical investigations include vital signs, haematology/chemistry and appearance of the buccal mucosa. Efficacy measurements include salivary flow and composition of major and minor glands using standard techniques (see e.g. Ferguson 1999, Archives of Oral Biol., 44:S11-S14; Boros et al., Archives of Oral Biol., 44:S59-S62) and the assessment of subjective oral dryness/comfort using validated measures (see e.g. Chainani-Wu et al., 2006, Spec. Care Dentist 26(4):164-170).

The mark [3] stands for this setting: buccal, 10 microliters each on left and right sides, recorded over 90 minutes, physostigmine 1% (n=2), bethanechol saturated solution (n=3).

Take `CC(C[N+](C)(C)C)OC(N)=O` (stereo not shown) [bethanechol, Bethanechol chloride]: in the data set on male Sprague-Dawley rats (applied topically, for up to 70 minutes), the salivary output result was “sustained and significant increase”. Also, the “increase of total saliva production above vehicle effect” value with male Sprague-Dawley rats (10 microliters on each side of the mouth, 70 minute collection period, P less than 0.01, n=4) came out at 72%. Moreover, in the data set on rats [1] (rat, in vivo), the “heart rate, mean maximum effect (decrease)” value stood at 1%; the “mean arterial pressure, mean maximum effect (decrease)” value is on record as 3%; the “pulmonary inflation pressure, mean maximum effect (increase)” value is on record as 0%. Besides, in the data set with rats [2] (0.3 micrograms/kg, in saline), the heart rate decrease is given as 6% and the “mean arterial pressure decrease” value is reported as 31%. Besides, in the data set on rats [2] (300 micrograms/kg, in saline), the heart rate decrease is listed as 69%, the “mean arterial pressure decrease” value stood at 72% and the “pulmonary inflation pressure increase” value stood at 30%. Also, in the data set with rats [2] (ascending doses 0.3 to 300 micrograms/kg), the “dose at which increases in pulmonary inflation pressure were seen” value is given as no less than 3 micrograms/kg. In addition, in the data set on patients with xerostomia, the salivary flows result was “increase salivary flows” and the “subjective oral dryness/comfort scores” value is “improve subjective oral dryness/comfort scores”.
As to `CNC(=O)Oc1ccc2c(c1)[C@]1(C)CCN(C)[C@@H]1N2C` [physostigmine], in the data set with rats [1] (setting [3]), the “heart rate, mean maximum effect (decrease)” value worked out at 9.3%; the “mean arterial pressure, mean maximum effect (decrease)” value stood at 17%; the “pulmonary inflation pressure, mean maximum effect (increase)” value stood at 44%.

Source of the values: patent US10137084B2, “Use of bethanechol for treatment of xerostomia” (priority 2009, dated 2018).
